Calls of active or inactive are those of the source. No rule for the calls is given here. A value given as a limit tells only on which side of the number the result lay.

One may read the IC50 as the concentration needed to halve the response being measured.

The experiment deals with Leishmania donovani growth inhibition. Description: antileishmanial activity against L. donovani parasites (AID 1159560).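 Also: parasites exposed to compound for 72 h before the viability read.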
Turning to `CCOC(=O)c1cn[nH]c1S(=O)(=O)N1CCC1c1ccccc1` (stereo not given), the IC50 is > 50 µM (inactive).
The value for `Cc1ccccc1CNC(=O)CN(Cc1ccccn1)Cc1ccccn1` was 10 µM.
The value for `COc1ccc(-c2cnc(NC(=O)c3ccc(F)cc3)n2C)cc1` was 3.2 µM; that for `O=C(Nc1nc2ccccc2[nH]1)c1c(O)c2cccc3c2n(c1=O)CC3` was 2.5 µM.
`O=[N+]([O-])c1ccc(-c2nnn(-c3cccnc3)n2)o1`: the IC50 is 16 µM.
Next, `Cc1ccccc1NS(=O)(=O)c1ccc2[nH]cc(C(=O)NC3CCCC3)c(=O)c2c1`: > 50 µM (inactive); `COc1ccc(S(=O)(=O)Nc2ccccc2OC)cc1NC(=O)CCCc1c[nH]c2ccccc12`: 25 µM.
The value for `Cc1nn(-c2nc3ccccc3s2)c2c1C(c1ccc(OCC(N)=O)cc1)SCC(=O)N2` (stereo not given) was > 50 µM (inactive).
The value for `COc1ccc(Nc2nc(-c3ccccn3)cs2)c(OC)c1` was 6.3 µM; that for `O=c1[nH]ccc2ccc(-c3ccncc3)cc12` was > 50 µM (inactive); that for `O=C(c1ccc(Cl)cc1)c1ccc(OC(=O)N2CCOCC2)cc1` was 6.3 µM.
For the molecule `Cn1ccnc1-c1nc(NCc2ccccc2Cl)cc(C2CC2)n1`, the IC50 is 1.6 µM.
The value for `CNc1nc(C)nc(N2CCc3cc(C(=O)NCc4ccc(-c5ccn[nH]5)cc4Cl)ccc32)n1` was 2.5 µM.
The value for `Cc1cc2nc(CN(C)Cc3ncccc3C)[nH]c2cc1C` was 5 µM; that for `CN(Cc1nnnn1C1CCN(Cc2ccc(-n3ccnc3)cc2)CC1)c1ccc(F)cc1F` was > 50 µM (inactive).
Turning to `CS(=O)(=O)c1ccc(CC(=O)Nc2nc(-c3ccc(Cl)s3)cs2)cc1`, the IC50 was > 50 µM (inactive).
Consider `Cc1c(Nc2cc(C3CC3)[nH]n2)ccc(C#N)c1Cl`, for which the half-maximal inhibitory concentration (IC50) was 20 µM.
For `OC1CCC(Nc2nccc(-c3sc(C4CCOCC4)nc3-c3ccc(F)c(F)c3)n2)CC1` (stereo not given), the concentration for half-maximal inhibition (IC50) was 3.2 µM.
The value for `Cc1cc(Nc2ccc(C#N)c(Cl)c2C)n[nH]1` was 50 µM; that for `CN(C)S(=O)(=O)c1cccc(CSc2nnc(-c3ccc4c(c3)OCO4)o2)c1` was 1 µM.
The value for `NC(=O)c1cc(NC(=O)c2ccccc2COc2ccccc2)ccc1Cl` was 7.9 µM.
The value for `COc1ccc(-c2nc3ccncc3c(=O)n2CCOc2ccccc2)cc1` was 40 µM.
Regarding `O=c1[nH]c(NCCCNCc2cc(Br)cc(Br)c2)nc2ccsc12`, the concentration for half-maximal inhibition (IC50) was 16 µM.
Next, `O=[N+]([O-])c1ccc(C2=CC(c3ccccc3)=NCCN2)cc1`: > 50 µM (inactive); `COc1ccc(C2CC(c3ccccc3Cl)=NN2C(=O)CNC(=O)C2CCCC2)cc1` (stereo not given): > 50 µM (inactive).
`COc1cc(F)c2ncc(F)c(CCN3CC[C@H](NCc4cc5c(cn4)OCS5)[C@@H](O)C3)c2c1`: the 50% inhibitory concentration (IC50) is 25 µM.
The value for `Fc1ccc(OC2CC(NCc3cccc4cn[nH]c34)C2)cc1C(F)(F)F` (stereo not given) was 20 µM; that for `CN1CCC(N(C)c2nccc(N3CCN(C(=O)c4cccc(-c5cccnc5)c4)CC3)n2)CC1` was > 50 µM (inactive).
The value for `O=C(COc1ccccc1)Nc1ccccc1C(=O)Nc1nccs1` was > 50 µM (inactive); that for `CCS(=O)(=O)Nc1ccc(C2=NN(C(=O)c3cccs3)C(c3ccccc3OC)C2)cc1` (stereo not given) was 1.3 µM; that for `CN1CCCN(C(=O)c2ccc(N3CCCC3)cc2Cl)CC1` was 40 µM.
In the case of `Cc1nc2c(-c3ncn[nH]3)cc(NC(=O)Cc3ccccc3)cn2c1C`, the IC50 is 0.79 µM.
Next, `COc1ccc(CN(C)Cc2ccncc2)cc1-c1ccc(S(=O)(=O)NC2CCC2)s1`: 40 µM; `C=CCn1nc([N+](=O)[O-])nc1Oc1ccc(Cl)cc1Cl`: > 50 µM (inactive).
Next, `Clc1ccc(CN2CCN(C3=NCCN3)CC2)cc1Cl`: > 50 µM (inactive).
Next, `CC1CCCN(S(=O)(=O)c2ccc(C(=O)Nc3nc(-c4ccccn4)cs3)cc2)C1` (stereo not given): 1.6 µM.
Consider `N#Cc1ccc(S(=O)(=O)N2CCN(Cc3cccc(-c4ccncc4)c3)CC2)cc1`, for which the IC50 is > 50 µM (inactive).
The value for `Cc1nc(-c2ccncc2)ncc1C(C)NC(=O)c1ccc(Cl)s1` (stereo not given) was > 50 µM (inactive); that for `Cc1cc(Br)sc1CNCCCNc1cc(=O)c2ccccc2[nH]1` was > 50 µM (inactive).
With `COc1ccc(S(=O)(=O)NC(C)C)cc1Nc1ncc(-c2cccc(F)c2)cn1`, the IC50 was 6.3 µM.
The value for `CC(C)(C)C(Cn1ccnc1)NC(=O)c1ccc2nc(C3CC3)oc2c1` (stereo not given) was 20 µM; that for `CN(C)Cc1cccc(Nc2nccc(-c3ccc(NCCN)c(C#N)c3)n2)c1` was 2.5 µM.
Next, `COCc1cnc2c(c1SCc1c(F)cccc1Cl)c(=O)n(C)c(=O)n2C`: 4 µM; `O=C(NCc1ccc(-n2cccc2)cc1)c1nc(Cn2ccc([N+](=O)[O-])n2)no1`: > 50 µM (inactive).
Next, `OC[C@@H](Nc1nccc(-c2c(-c3ccc(F)cc3)ncn2C2CCNCC2)n1)c1ccccc1`: > 50 µM (inactive); `Cc1ccc(NC(=O)c2ccc(Cl)c(NC(=O)c3ccc([N+](=O)[O-])cc3)c2)cc1`: > 50 µM (inactive); `COc1cc2c(cc1OC)[C@H]1[C@@H](C)c3ccc(OC)c(OC)c3CN1CC2`: 2.5 µM.
For `Cc1occc1C(=O)Nc1ccccc1C(=O)Nc1nccs1`, the IC50 is > 50 µM (inactive).
The value for `Cc1nc(C(=O)Nc2ccc3c(c2)OCO3)nn1-c1ccc(Cl)cc1` was 2.5 µM.
Next, `O=c1ccn(-c2ccc([N+](=O)[O-])cc2Cl)c2ccc(F)cc12`: > 50 µM (inactive); `CCOc1ccc(Nc2ccc(S(=O)(=O)N3CCN(C)CC3)cc2[N+](=O)[O-])cc1OCC`: 0.79 µM.
The value for `COc1ccc([N+](=O)[O-])cc1NC(=O)Nc1cccc(Cl)c1` was > 50 µM (inactive); that for `O=C(Nc1cccc(Cl)c1)Nc1ccc([N+](=O)[O-])cc1Cl` was 6.3 µM.
Regarding `Cc1sc(C)c(C(F)(F)F)c1CNCCCNc1cc(=O)c2ccccc2[nH]1`, the IC50 was > 50 µM (inactive).
Next, `COc1cc(-c2noc(CC#N)n2)ccc1OC(F)F`: > 50 µM (inactive); `CN1C(=O)c2ccccc2Sc2ccc(NC(=O)NCc3ccco3)cc21`: > 50 µM (inactive).
Next, `CCS(=O)(=O)c1cccc(C(=O)Nc2nc(-c3ccccn3)cs2)c1`: 1.3 µM.
With `CC(C)c1cc(C(=O)N2CCCC(c3cc4ncccc4[nH]3)C2)on1` (stereo not given), the IC50 is > 50 µM (inactive).
Regarding `Oc1c(-c2n[nH]c(Cc3ccc(F)cc3)n2)ncc2cccnc12`, the half-inhibitory concentration (IC50) is 0.13 µM.
The value for `Cc1cc(N(C)C)nc2ccc(Cc3cnc(N)nc3N)cc12` was > 50 µM (inactive); that for `CC(C)(C)Nc1nc(-c2ccccn2)nc2ccccc12` was 6.3 µM; that for `COc1ccc(NS(=O)(=O)c2cc(-c3cc(C)[nH]n3)ccc2C)cc1OC` was 1 µM.
The value for `O=C(Nc1ncc([N+](=O)[O-])s1)C1CC1` was 40 µM; that for `Cc1ccccc1NS(=O)(=O)c1ccc2[nH]cc(C(=O)NC3CCCCC3)c(=O)c2c1` was > 50 µM (inactive); that for `COc1ccc(C2=NCC(CSc3nnc(-c4ccc5c(c4)OCO5)o3)S2)cc1` (stereo not given) was 1 µM.
The value for `Cc1nc(-c2ccc3c(c2)OCO3)sc1C(=O)NCc1ccc2c(c1)OCO2` was 2 µM; that for `O=c1[nH]c(C=Cc2cccc(OCCOc3ccccc3)c2)nc(O)c1[N+](=O)[O-]` was > 50 µM (inactive); that for `O=C(NCCc1csc(-c2ccc(F)cc2)n1)c1cccs1` was > 50 µM (inactive).
`CC(C)Oc1ccc(C(=O)Nc2ccc(N3CCOCC3)c(Cl)c2)cc1`: the IC50 is > 50 µM (inactive).
Turning to `Cn1cc(CN2CCN(c3ccc4c(c3)CCN(C(=O)[C@H]3C[C@@H]3c3ccccc3)CC4)CC2)cn1`, the IC50 was 0.63 µM.
Consider `Clc1ccc(C(CC2CCCCO2)Cn2cncn2)c(Cl)c1` (stereo not given), for which the half-inhibitory concentration (IC50) was 25 µM.
For the molecule `CC1=NN(C(=O)CCn2cnc([N+](=O)[O-])n2)C(O)(C(F)(F)F)C1` (stereo not given), the IC50 is > 50 µM (inactive).
Next, `COc1ccc(C)cc1-c1csc(NC(=O)C(C)n2ccnc2)n1` (stereo not given): 3.2 µM.
The value for `COc1cccc(C(=O)[C@H]2C[C@@H]2CN(Cc2ccccn2)Cc2ccccn2)c1` was 7.9 µM; that for `COc1ccc(NS(=O)(=O)c2cc(NC(=O)c3ccc([N+](=O)[O-])s3)ccc2OC)cc1` was 0.5 µM.
Next, `O=C1CN(C(=O)c2cccc(Nc3ncc(-c4ccc5c(c4)OCO5)cn3)c2)CCN1`: 1.6 µM; `COCc1cc(Nc2cccc(Cl)c2)nc(-c2ccccn2)n1`: 2.5 µM; `CN(Cc1nc2c(C(=O)N3CCN(Cc4ccccc4)CC3)cccc2[nH]1)C1CCCc2cccnc21` (stereo not given): 5 µM.
As to `O=C1COC(c2ccccc2)(c2ccccc2)CN1C1CCN(Cc2ccc(-n3ccnc3)cc2)CC1`, the IC50 is 32 µM.
Next, `N#Cc1ccc(S(=O)(=O)N2CCC3(CCN(c4ccccc4)C3=O)CC2)cc1`: > 50 µM (inactive); `O=C(Nc1cccc(F)c1)N1CCC(Oc2cccc(-c3cccnc3)c2)CC1`: 0.5 µM; `O=c1cc(CSc2ccc(Cl)cc2)nc(-c2ccccn2)[nH]1`: 1.6 µM.
On to `COc1ccc(-c2cnc(NC(=O)c3cc(-c4ccccn4)n[nH]3)n2C)cc1`, for which the IC50 was 4 µM.
For `Cc1cnc(Nc2cc(Cc3ccccc3)nc(NC3CCC(O)CC3)n2)s1` (stereo not given), the concentration for half-maximal inhibition (IC50) is 0.79 µM.
On to `O=C(N1CCc2ccccc2CC1)C1(C(=O)N2CCC(n3c(=O)[nH]c4ncccc43)CC2)CC1`, for which the IC50 was > 50 µM (inactive).
Consider `O=C(CC1(O)C(=O)N(Cc2cccs2)c2ccc(Br)cc21)c1cccnc1` (stereo not given), for which the IC50 is > 50 µM (inactive).
Next, `O=C(NC1CCN(C2Cc3ccc(NS(=O)(=O)c4cc(F)cc(F)c4)cc3C2)CC1)C1CC1` (stereo not given): 25 µM; `NS(=O)(=O)c1ccc(Nc2nccc(-c3cnn4ncccc34)n2)cc1`: 0.79 µM; `O=C(NCCc1ccccn1)C(c1cn[nH]c1)N1CCN(c2ccc(Cl)c(Cl)c2)CC1` (stereo not given): 2.5 µM.
Next, `COc1ccc(C2CC(c3ccc(NS(C)(=O)=O)cc3)=NN2C(=O)c2cccs2)cc1OC` (stereo not given): 13 µM.

Values taken from PubChem BioAssay AID1159560 (GlaxoSmithKline (GSK), 2015).
